Our source for the EC50 values is PubChem BioAssay AID504893 (The Scripps Research Institute Molecular Screening Center, 2011).

For this experiment, the target named is cAMP-dependent protein kinase type II-beta regulatory subunit (Homo sapiens) (UniProt P31323). Put plainly: PKAc release from R2B regulatory subunit – biochemical, fluorescence polarization, EC50, human R2B, selectivity assay for PKA-R1A activator project, dose response (AID 504893). Particulars: PKA-R2B holoenzyme, Cy5-IP20 fluorescence polarization activation.
cAMP-dependent protein kinase type II-beta regulatory subunit (Homo sapiens), sequence (P31323 whole entry, looked up): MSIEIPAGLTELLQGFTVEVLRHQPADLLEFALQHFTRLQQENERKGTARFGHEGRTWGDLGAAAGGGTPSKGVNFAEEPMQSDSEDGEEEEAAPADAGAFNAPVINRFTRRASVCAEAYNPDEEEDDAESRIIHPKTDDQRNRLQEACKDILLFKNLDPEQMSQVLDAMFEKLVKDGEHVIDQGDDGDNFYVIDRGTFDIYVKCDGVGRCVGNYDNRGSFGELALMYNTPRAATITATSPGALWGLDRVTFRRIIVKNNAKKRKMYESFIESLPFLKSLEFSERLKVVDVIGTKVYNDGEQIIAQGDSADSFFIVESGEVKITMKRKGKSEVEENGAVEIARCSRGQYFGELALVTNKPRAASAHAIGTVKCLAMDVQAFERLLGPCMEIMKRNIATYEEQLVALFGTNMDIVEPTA

On to `Nc1ncnc2c1nc(Sc1ccc(Cl)cc1)n2[C@@H]1O[C@@H]2COP(=O)(O)O[C@H]2[C@H]1O`, for which the EC50 (as a rule, the concentration at which the effect is half-maximal) was 50.5 nM.
The same measure for `CCOP1(=O)OCC2OC(n3cnc4c(N)ncnc43)C(O)C2O1` (stereo not given): 3750 nM; for `Nc1nc2c(nc(Br)n2[C@@H]2O[C@@H]3COP(=O)(O)O[C@H]3[C@H]2O)c(=O)[nH]1`: 2160 nM; for `Nc1ncnc2c1nc(Br)n2[C@@H]1O[C@@H]2COP(=O)(O)O[C@H]2[C@H]1O`: 51.1 nM.
Take `CCCC(=O)Nc1ncnc2c1ncn2[C@@H]1O[C@@H]2OP(=O)(O)OC[C@H]2[C@H]1OC(=O)CCC`: the EC50 is 9100 nM.
